Data set [1] addresses T1, Solute carrier family 22 member 6 (Rattus norvegicus, UniProt O35956).
T1 sequence (O35956 whole entry): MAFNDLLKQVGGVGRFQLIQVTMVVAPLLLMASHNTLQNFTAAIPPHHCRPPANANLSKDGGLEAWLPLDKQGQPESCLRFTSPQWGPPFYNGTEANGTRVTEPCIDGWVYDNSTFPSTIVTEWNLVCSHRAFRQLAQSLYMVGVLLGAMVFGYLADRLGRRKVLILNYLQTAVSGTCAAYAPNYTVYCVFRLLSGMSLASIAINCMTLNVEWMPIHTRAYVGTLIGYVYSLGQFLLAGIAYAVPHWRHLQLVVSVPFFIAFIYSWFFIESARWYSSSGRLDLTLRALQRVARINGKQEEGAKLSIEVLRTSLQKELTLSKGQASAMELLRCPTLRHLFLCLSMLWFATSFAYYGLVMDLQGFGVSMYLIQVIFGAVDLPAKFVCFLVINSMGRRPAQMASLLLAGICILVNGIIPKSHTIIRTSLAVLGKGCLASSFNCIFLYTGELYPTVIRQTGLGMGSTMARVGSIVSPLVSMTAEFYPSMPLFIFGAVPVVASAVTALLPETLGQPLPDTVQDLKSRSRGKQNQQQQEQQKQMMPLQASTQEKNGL
The experiment in a line: TP_TRANSPORTER: uptake in Xenopus laevis oocytes. The note with it: oocyte. In kind it is functional, cell-based.

The target in data set [2] is T1, Solute carrier family 22 member 6. As to the kind of experiment: TP_TRANSPORTER: inhibition of PAH uptake (PAH: 2 uM, Ethacrynic acid; 2000 uM) in Xenopus laevis oocytes. The note with it: probe PAH (2 uM). The class given is functional, cell-based, Oocyte.
Data set [3] has the same target. As to the kind of experiment: TP_TRANSPORTER: inhibition of PAH uptake (PAH: 2 uM, Nalidixate; 2000 uM) in Xenopus laevis oocytes. In kind it is functional, cell-based, Oocyte. As to conditions: probe PAH (2 uM).
Data set [4] shares this target. The experiment in a line: TP_TRANSPORTER: inhibition of PAH uptake (PAH: 2 uM, Valproic acid; 2000 uM) in Xenopus laevis oocytes. The class given is functional, cell-based, Oocyte. As to conditions: probe PAH (2 uM).

Consider `Nc1nc2c(ncn2[C@@H]2O[C@@H]3COP(=O)(O)O[C@H]3[C@H]2O)c(=O)[nH]1`, for which the Activity entry in data set [1] is “substrate [+]”.
On the same count and under the same terms, the entry for `O=C(O)CCC(=O)C(=O)O` [ALPHA-KETOGLUTARIC ACID] is “substrate [+]”.
A word on the inhibition: it is the drop in the measured response relative to a control, in per cent. High values mean a strong effect, low ones a weak effect. Molecule `C=C(CC)C(=O)c1ccc(OCC(=O)O)c(Cl)c1Cl` [ETHACRYNIC ACID] yielded an inhibition at 2000 µM in data set [2] above 85%.
With `CCn1cc(C(=O)O)c(=O)c2ccc(C)nc21` [NALIDIXIC ACID], in data set [3], the inhibition at 2000 µM is above 85%.
Regarding `CC[N+](CC)(CC)CC` [TETRYLAMMONIUM], in data set [1], the Activity entry was “is not a substrate [-]”.
Still for that read-out and setting: the entry for `O=c1[nH]c(=O)c2[nH]c(=O)[nH]c2[nH]1` [URIC ACID] is “substrate [+]”.
In data set [4], `CCCC(CCC)C(=O)O` [VALPROIC ACID] displayed an inhibition at 2000 µM above 85%.

These data come from ChEMBL document CHEMBL2074345, “Expression cloning and characterization of a novel multispecific organic anion transporter” (J Biol Chem, 1997).
